According to ChEMBL document CHEMBL2396593, “Targeting mutant KRAS for anticancer therapeutics: a review of novel small molecule modulators” (J Med Chem, 2013):

How the values were obtained:
[1] = Inhibition of human Rce1p using quenched fluorogenic substrate by fluorescence assay
[2] = Inhibition of yeast Rce1p using yeast a-factor mating pheromone substrate; set-up: species or system Saccharomyces cerevisiae
GTPase KRas [3] = target: T1, GTPase KRas (Homo sapiens, UniProt P01116); experiment: Inhibition of full-length human KRas4B (amino acids 1 to 188)-SOS interaction assessed as inhibition of nucleotide exchange activity
T1 sequence (P01116 whole entry, the tested form may be a part): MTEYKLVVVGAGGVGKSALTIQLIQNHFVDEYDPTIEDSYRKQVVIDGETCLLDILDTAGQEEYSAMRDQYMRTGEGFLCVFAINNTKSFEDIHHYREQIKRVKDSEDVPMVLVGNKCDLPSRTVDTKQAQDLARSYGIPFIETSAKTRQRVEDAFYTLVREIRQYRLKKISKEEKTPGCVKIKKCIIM

GTPase KRas [4] = target: T1, GTPase KRas; experiment: Inhibition of full-length human KRas4B (amino acids 1 to 188)-SOS interaction assessed as inhibition of SOS-mediated nucleotide release activity
MEF [5] = experiment: Antitumor activity against MEF harboring KRAS G12D mutant allografted in p53-null mouse assessed as reduction in tumor volume relative to control; assay type: functional; set-up: scale not given: the % may be the effect or the level left
MEF [6] = experiment: Antitumor activity against MEF harboring KRAS G12D mutant allografted in p53-null mouse assessed as reduction in tumor weight relative to control; assay type: functional; set-up: scale not given: the % may be the effect or the level left
MEF [7] = experiment: Cytotoxicity against MEF harboring KRAS G12D mutant by ATP-based cell viability assay; assay type: functional; settings: Mus musculus
DLD-1 [8] = experiment: Cytotoxicity against mutant KRAS allele-deficient human DLD1 cells; assay type: functional, cell-based
DLD-1 [9] = experiment: Cytotoxicity against human DLD1 cells harboring mutant KRAS; assay type: functional, cell-based
DLD-1 [10] = experiment: Selectivity ratio of IC50 for mutant KRAS allele-deficient human DLD1 cells to IC50 for human DLD1 cells harboring mutant KRAS; assay type: functional
[11] = Cytotoxicity against human H460 cells by SRB assay; assay type: functional, cell-based; settings: NCI-H460
[12] = Antitumor activity against human H460 cells xenograft model assessed as tumor growth inhibition at 100 mg/kg, ip relative to solvent control; assay type: functional; settings: NCI-H460, ip, route intraperitoneal, read-out: TGI
[13] = Cytotoxicity against human NCI-H2887 cells by SRB assay; assay type: functional, cell-based
A549 = experiment: Cytotoxicity against human A549 cells by SRB assay; assay type: functional, cell-based
[14] = Cytotoxicity against human T29Kt1 cells by SRB assay
[15] = Antitumor activity against human H460 cells xenograft model assessed as increase in host survival at 100 mg/kg, ip relative to solvent control (reference value: 24 days); assay type: functional, NCI-H460; settings: route intraperitoneal
NCI-H2122 = experiment: Cytotoxicity against human NCI-H2122 cells by SRB assay; assay type: functional, cell-based
[16] = system: GTPase KRas (Homo sapiens), P01116 [G12D]; experiment: Binding affinity to KRAS G12D mutant (unknown origin)
GTPase KRas (Homo sapiens), P01116 [G12D], sequence (P01116 whole entry G12D, looked up): as the sequence (P01116 whole entry, the tested form may be a part) above, with G12D counted along it

DLD-1 [17] = experiment: Antiproliferative activity against human DLD1 cells expressing KRAS mutant at 25 nM; assay type: functional
Mus musculus [18] = experiment: Inhibition of MEK1-mediated ERK phosphorylation in human LOX cells xenografted in nude mouse assessed as plasma concentration required for inhibition at 100 mg/kg, po administered as single dose measured after 1 to 12 hrs by Western blot analysis; assay type: functional, organism-based; set-up: dose 100 mg/kg, route oral
Mus musculus [19] = experiment: Inhibition of MEK1-mediated ERK phosphorylation in human HT-29 cells xenografted in nude mouse assessed as plasma concentration required for inhibition at 100 mg/kg, po administered as single dose measured after 1 to 12 hrs by Western blot analysis; assay type: functional, organism-based; set-up: dose 100 mg/kg, route oral; settings: HT-29, Plasma
[20] = target: T2, Dual specificity mitogen-activated protein kinase kinase 1 (Homo sapiens, UniProt Q02750); experiment: Inhibition of MEK1 (unknown origin)
T2 sequence (Q02750 whole entry): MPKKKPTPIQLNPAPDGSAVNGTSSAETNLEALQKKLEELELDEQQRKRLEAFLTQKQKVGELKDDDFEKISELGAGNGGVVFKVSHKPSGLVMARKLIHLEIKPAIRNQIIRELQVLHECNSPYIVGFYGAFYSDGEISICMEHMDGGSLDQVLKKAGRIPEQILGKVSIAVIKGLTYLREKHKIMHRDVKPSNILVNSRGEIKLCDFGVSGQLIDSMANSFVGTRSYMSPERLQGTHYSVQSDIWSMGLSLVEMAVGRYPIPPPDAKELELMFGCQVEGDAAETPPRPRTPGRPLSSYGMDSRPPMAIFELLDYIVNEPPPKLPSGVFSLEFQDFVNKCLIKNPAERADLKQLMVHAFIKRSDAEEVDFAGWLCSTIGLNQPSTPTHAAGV

[21] = target: RAF proto-oncogene serine/threonine-protein kinase (Homo sapiens, UniProt P04049); experiment: Inhibition of cRAF (unknown origin) by Caliper assay
RAF proto-oncogene serine/threonine-protein kinase, sequence (P04049 whole entry): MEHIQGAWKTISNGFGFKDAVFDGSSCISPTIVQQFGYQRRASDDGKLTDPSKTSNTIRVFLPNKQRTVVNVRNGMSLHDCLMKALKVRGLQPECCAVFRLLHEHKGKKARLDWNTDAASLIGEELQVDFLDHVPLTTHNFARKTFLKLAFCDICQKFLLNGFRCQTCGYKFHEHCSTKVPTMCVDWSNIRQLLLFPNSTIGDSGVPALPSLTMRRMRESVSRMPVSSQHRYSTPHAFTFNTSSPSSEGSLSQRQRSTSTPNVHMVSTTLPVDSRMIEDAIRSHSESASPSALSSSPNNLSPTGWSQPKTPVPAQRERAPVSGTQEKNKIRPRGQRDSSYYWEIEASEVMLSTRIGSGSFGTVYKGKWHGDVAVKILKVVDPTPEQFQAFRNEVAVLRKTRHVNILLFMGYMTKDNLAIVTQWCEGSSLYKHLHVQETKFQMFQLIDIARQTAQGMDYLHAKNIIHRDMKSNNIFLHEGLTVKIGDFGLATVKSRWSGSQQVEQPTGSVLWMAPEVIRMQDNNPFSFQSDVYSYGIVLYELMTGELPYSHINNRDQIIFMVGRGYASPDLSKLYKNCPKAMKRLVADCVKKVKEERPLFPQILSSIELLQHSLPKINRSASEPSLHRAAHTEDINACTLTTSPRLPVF

[22] = target: T2, Dual specificity mitogen-activated protein kinase kinase 1; experiment: Non-competitive inhibition of MEK1 (unknown origin) kinase activity using fluorescent peptide as substrate by fluorescence assay in presence of ATP
[23] = Inhibition of cRaf/MEK/ERK (unknown origin); set-up: species or system Homo sapiens
[24] = Inhibition of MEK/ERK (unknown origin); set-up: species or system Homo sapiens

`CCCC(c1cc(C(C)(C)C)c(O)cc1C)c1cc(C(C)(C)C)c(O)cc1C` gave an IC50 [1] of 0.4 µM and an IC50 [2] of 6 µM.
`Cc1[nH]c2cc(Cl)cc(Cl)c2c1CCN` gave an IC50 (GTPase KRas [3]) of 342 µM and an IC50 (GTPase KRas [4]) of 155 µM.
With `C[C@H](CN1CCCC1)C(=O)c1ccc(C(F)(F)F)cc1` [LANPERISONE] the Activity (MEF [5]) was 24%, the Activity (MEF [6]) was 37% and the IC50 (MEF [7]) was 4 µM.
In the case of `c1ccc(-c2nn(-c3ccccc3)[n+](-c3ccccc3)n2)cc1`, the IC50 (DLD-1 [8]) is reported as 12 µg/mL, the IC50 (DLD-1 [9]) is reported as 2 µg/mL and the “Ratio IC50” value (DLD-1 [10]) is reported as 6.
With `O=Cc1cn(Cc2ccc(Cl)cc2)c2ccccc12` the IC50 [11] was ≤ 3 µM, the inhibition in vivo at 100 mg/kg [12] was 75.4% and the IC50 [13] was ≤ 3 µM. The IC50 (A549) was ≤ 3 µM, the IC50 [14] was 4.81 µM and the Survival [15] was 32 days. For the same compound, the IC50 (NCI-H2122) was ≤ 3 µM.
Compound `Cc1[nH]c2ccccc2c1Cc1nc2ccccc2[nH]1` has an Activity [16] of 1.3 mM.
For `CC[C@@H]1C(=O)N(C)c2cnc(Nc3ccc(C(=O)NC4CCN(C)CC4)cc3OC)nc2N1C1CCCC1` [BI-2536], the inhibition at 0.025 µM (DLD-1 [17]) was > 50%.
`NC(=O)c1nnn(Cc2cc(Cl)c(C(=O)c3ccc(Cl)cc3)c(Cl)c2)c1N` [CARBOXYAMIDOTRIAZOLE] showed an IC50 [1] of 0.4 µM and an IC50 [2] of 6 µM.
In the case of `C[C@H](CO)COc1ccc([C@H]2NC(=O)N([C@H](C(=O)Nc3ccc(I)cc3F)[C@@H](C)c3ccccc3)C2=O)cc1`, the EC50 (Mus musculus [18]) is reported as 1.36 µM, the EC50 (Mus musculus [19]) is reported as 3.35 µM and the IC50 [20] is reported as 0.025 µM.
With `CC[C@H](C)[C@H](N)C(=O)Nc1ccc2nc(Cc3c[nH]c4ccccc34)[nH]c2c1` the Activity [16] was 0.19 mM.
With `CCC(=O)c1csc(NC(=O)[C@H]([C@@H](C)c2ccccc2)N2C(=O)N[C@H](c3ccc(OCCO)cc3)C2=O)n1` the Ki [21] was > 50 µM, the IC50 [22] was 0.023 µM and the Ki [23] was 0.053 µM. The Ki [24] was 0.184 µM.
Compound `O=C(O)c1ccc(NC(c2ccccc2)c2ccc3cccnc3c2O)cc1` (stereo unspecified) has an IC50 [1] of 0.4 µM and an IC50 [2] of 6 µM.
